According to patent US20240115586A1, “THERAPEUTIC AGENT FOR PULMONARY FIBROSIS” (SANSHO CO. LTD., priority 2020, published 2024):

Test system: bleomycin-induced pulmonary fibrosis model mice
Assay: Effect on right lung wet weight, dry weight and hydroxyproline in bleomycin-induced pulmonary fibrosis model mice
Type: in vivo, Mouse Crl:CD1(ICR)
Conditions: Day 28, mean ± S.E.M., N=9; for Dry weight of right lung: Control 0.0348 ± 0.0017, Normal 0.0236 ± 0.0007; for Wet weight of right lung: Control 0.1735 ± 0.0087, Normal 0.1224 ± 0.0029; for Hydroxyproline (right lung): Control 354.9 ± 15.1, Normal 266.9 ± 6.4
Experimental: • Japanese Pharmacopoeia: Physiological saline solution (saline solution) • (2) Test system • Mouse Crl:CD1(ICR), 45 mice, male, purchased from Charles River Japan K.K. (11 weeks old at time of purchase)
The test substance was divided into 6 mg×28 doses prior to the day of administration. Dose solution was prepared on the day of administration. To one bottle of the previously aliquoted test substance (6 mg), 6 mL of saline solution was added and mixed by inverting. The samples were heated (approximately 40° C.) and sonicated until dissolution was visually confirmed (1 mg/mL solution). The 1 mg/mL solution was divided into 0.5 mL portions, and 4.5 mL of saline solution was added. Dissolution was confirmed by inverting and mixing (0.1 mg/mL solution).
The route of administration was intraperitoneal administration.
It was administered once per day for 28 days. Administration at the time of preparation of the pulmonary fibrosis model (Day 0 to Day 4) was before administration of bleomycin.
10 mL/kg was administered intraperitoneally using a 1 mL syringe and needle (Terumo Corporation).
The bleomycin solution was administered into the tail vein of mice at a dose volume of 5 mL/kg (bleomycin dose: 15 mg/kg) once a day for 5 days. The volume of administered liquid was calculated based on the latest body weight and calculated to the nearest 0.01 mL (rounded to the third decimal place). The normal group was administered physiological saline at a volume of 5 mL/kg.
After lethal exsanguination, the right bronchial bifurcation was ligated, and only the right lung was removed. The wet weight of the excised right lung was measured. After weighing, the right lung was minced. After that, the right lung was dried in a dry heat sterilizer set at 72° C. for about 72 hours, and the dry weight of the right lung was measured. After measuring the dry weight, it was stored in an ultra-low temperature freezer (permissible range: −90 to −65° C.) until the amount of hydroxyproline was measured. The left lung was ligated and fixed after a cannula was inserted into the trachea, and a 10% phosphate-buffered formalin solution was injected through the cannula at a pressure of 15 cm H2O to expand and fix the lung tissue. Lung sampling was performed on animals from which blood collection was performed. A fixed left lung is undergoing histopathological examination.
The hydroxyproline content of the right lung cryopreserved in section (6-5) was measured. 2 mL of HCl for hydrolysis was added to the dried right lung and the sample was hydrolyzed in an autoclave at about 121° C. for 30 minutes. After that, it was neutralized with 2.5 N NaOH (pH about 6 to 7: pH test paper was used for confirmation). By measuring the tare weight in advance and measuring the weight after neutralization, the amount (g) of the sample after neutralization was calculated. The sample after neutralization was appropriately diluted with water for injection, and 2 mL of the solution was used as a sample for measurement of HYP content.
1 mL of chloramine T reagent was added to 2 mL of the HYP standard solution and the mixture was left stand at room temperature for 20 minutes. Then, 1 mL of perchloric acid reagent was added and the mixture was left stand at room temperature for 5 minutes. After adding 1 mL of p-dimethylaminobenzaldehyde reagent and heating at 60° C. for 20 minutes, the absorbance at 557 nm of the supernatant which was obtained by filtration using a filter was measured with a spectrophotometer to create a calibration curve.
For 2 mL of each sample for measurement of HYP content, the absorbance was measured in the same manner as described in Section 3.6.6.2, and the HYP content (μg/mL) was calculated from the measured values based on the calibration curve obtained in Section 3.6.6.2. Each sample for measurement of HYP content was diluted 20-fold and was measured. Single measurement was used. […]

[1] = 2ccPA 1 mg/kg intraperitoneal once per day for 28 days
[2] = 2ccPA 10 mg/kg intraperitoneal once per day for 28 days

## 2-Carbacyclic phosphatidic acid [2ccPA]
[1]
  Dry weight of right lung: 0.0327 ± 0.0021 g
  Wet weight of right lung: 0.1599 ± 0.0113 g
  Hydroxyproline (right lung): 331.2 ± 20.0 μg/lung
[2]
  Dry weight of right lung: 0.0303 ± 0.0011 g
  Wet weight of right lung: 0.1458 ± 0.0044 g
  Hydroxyproline (right lung): 288.8 ± 11.1 μg/lung
